# Tests used:
# Assay type in all cases: in vivo
# [1] = tested on: giant foxtail (Setaria faberii); assay: Test C preemergence; details: Setaria faberi, pre-emergence, 336 h, preemergence, scale 0 to 100, read-out: Plant response rating, Foxtail, Giant
# Summary of the method: (§1)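 Treatment is preemergence to seeds in a loam and sand soil, or postemergence to plants 2 to 18 cm high in a peat moss-based medium. The compound is delivered in a non-phytotoxic solvent mixture including surfactant. Effects are judged by eye 13 to 15 days later on a 0 to 100 scale.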
# [2] = tested on: large (Lg) crabgrass (Digitaria sanguinalis); assay: Test C preemergence; details: Digitaria sanguinalis, pre-emergence, 336 h, preemergence, scale 0 to 100, read-out: Plant response rating, Crabgrass, Large
# Summary of the method: as §1
# [3] = tested on: oilseed rape (Brassica napus); assay: Test C preemergence; details: Brassica napus, pre-emergence, preemergence, scale 0 to 100, read-out: Plant response rating, Oilseed Rape
# Summary of the method: as §1
# [4] = tested on: winter wheat (Triticum aestivum); assay: Test C preemergence; details: Triticum aestivum, pre-emergence, 336 h, preemergence, scale 0 to 100, read-out: Plant response rating, Wheat
# Summary of the method: as §1
# [5] = tested on: Italian ryegrass (Lolium multiflorum); assay: Test C postemergence; details: Lolium multiflorum, post-emergence, 336 h, Postemergence, scale 0 to 100, read-out: Plant response rating, Ryegrass, Italian
# Summary of the method: as §1
# [6] = tested on: barnyardgrass (Echinochloa crus-galli); assay: Test C postemergence; details: Echinochloa crus-galli, post-emergence, Postemergence, scale 0 to 100, read-out: Plant response rating, Barnyardgrass
# Summary of the method: as §1
# [7] = tested on: blackgrass (Alopecurus myosuroides); assay: Test C postemergence; details: Alopecurus myosuroides, post-emergence, 336 h, Postemergence, scale 0 to 100, read-out: Plant response rating, Blackgrass
# Summary of the method: as §1
# [8] = tested on: chickweed (common chickweed, Stellaria media); assay: Test C postemergence; details: Stellaria media, post-emergence, Postemergence, scale 0 to 100, read-out: Plant response rating, Chickweed
# Summary of the method: as §1
# corn (Zea mays) = assay: Test C postemergence; details: Zea mays, post-emergence, 336 h, Postemergence, scale 0 to 100
# Summary of the method: as §1
# [9] = tested on: galium (catchweed bedstraw, Galium aparine); assay: Test C postemergence; details: Galium, post-emergence, 336 h, Postemergence, scale 0 to 100, read-out: Plant response rating, Galium
# Summary of the method: as §1
# [10] = tested on: giant foxtail (Setaria faberii); assay: Test C postemergence; details: Setaria faberi, post-emergence, 336 h, Postemergence, scale 0 to 100, read-out: Plant response rating, Foxtail, Giant
# Summary of the method: as §1
# [11] = tested on: johnsongrass (Sorghum halepense); assay: Test C postemergence; details: Sorghum halepense, post-emergence, 336 h, Postemergence, scale 0 to 100, read-out: Plant response rating, Johnsongrass
# Summary of the method: as §1
# [12] = tested on: lambsquarters (Chenopodium album); assay: Test C postemergence; details: Chenopodium album, post-emergence, 336 h, Postemergence, scale 0 to 100, read-out: Plant response rating, Lambsquarters
# Summary of the method: as §1
# [13] = tested on: large (Lg) crabgrass (Digitaria sanguinalis); assay: Test C postemergence; details: Digitaria sanguinalis, post-emergence, 336 h, Postemergence, scale 0 to 100, read-out: Plant response rating, Crabgrass, Large
# Summary of the method: as §1
# [14] = tested on: morningglory (Ipomoea coccinea); assay: Test C postemergence; details: Ipomoea, post-emergence, 336 h, Postemergence, scale 0 to 100, read-out: Plant response rating, Morningglory
# Summary of the method: as §1
# [15] = tested on: oilseed rape (Brassica napus); assay: Test C postemergence; details: Brassica napus, post-emergence, Postemergence, scale 0 to 100, read-out: Plant response rating, Oilseed Rape
# Summary of the method: as §1
# [16] = tested on: pigweed (Amaranthus retroflexus); assay: Test C postemergence; details: Amaranthus retroflexus, post-emergence, 336 h, Postemergence, scale 0 to 100, read-out: Plant response rating, Pigweed
# Summary of the method: as §1
# [17] = tested on: ragweed (common ragweed, Ambrosia elatior); assay: Test C postemergence; details: Ambrosia artemisiifolia, post-emergence, 336 h, Postemergence, scale 0 to 100, read-out: Plant response rating, Ragweed
# Summary of the method: as §1
# soybean (Glycine max) = assay: Test C postemergence; details: Glycine max, post-emergence, Postemergence, scale 0 to 100, read-out: Plant response rating, Soybean
# Summary of the method: as §1
# [18] = tested on: velvetleaf (Abutilon theophrasti); assay: Test C postemergence; details: Abutilon theophrasti, post-emergence, Postemergence, scale 0 to 100, read-out: Plant response rating, Velvetleaf
# Summary of the method: as §1
# [19] = tested on: winter wheat (Triticum aestivum); assay: Test C postemergence; details: Triticum aestivum, post-emergence, 336 h, Postemergence, scale 0 to 100, read-out: Plant response rating, Wheat
# Summary of the method: as §1
# [20] = tested on: yellow nutsedge (Cyperus esculentus); assay: Test C postemergence; details: Cyperus, post-emergence, 336 h, Postemergence, scale 0 to 100, read-out: Plant response rating, Nutsedge, Yellow
# Summary of the method: as §1
structure (smiles),measurement,setting,value
Fc1cnc(Oc2c(Br)cccc2Oc2ncc(Cl)cn2)nc1 [Compound 22],pest or weed control at 31 g/ha,[1]; 31 g ai/ha,100%
same,pest or weed control at 62 g/ha,[1]; 62 g ai/ha,100%
same,pest or weed control at 125 g/ha,[1]; 125 g ai/ha,100%
same,pest or weed control at 31 g/ha,[2]; 31 g ai/ha,100%
same,pest or weed control at 62 g/ha,[2]; 62 g ai/ha,100%
same,pest or weed control at 125 g/ha,[2]; 125 g ai/ha,100%
same,plant injury at 31 g/ha,[3]; 31 g ai/ha,85%
same,plant injury at 62 g/ha,[3]; 62 g ai/ha,98%
same,plant injury at 125 g/ha,[3]; 125 g ai/ha,100%
same,plant injury at 250 g/ha,[3]; 250 g ai/ha,100%
same,plant injury at 31 g/ha,[4]; 31 g ai/ha,0%
same,plant injury at 62 g/ha,[4]; 62 g ai/ha,15%
same,plant injury at 125 g/ha,[4]; 125 g ai/ha,20%
same,plant injury at 250 g/ha,[4]; 250 g ai/ha,90%
same,pest or weed control at 31 g/ha,[5]; 31 g ai/ha,0%
same,pest or weed control at 62 g/ha,[5]; 62 g ai/ha,0%
same,pest or weed control at 125 g/ha,[5]; 125 g ai/ha,5%
same,pest or weed control at 250 g/ha,[5]; 250 g ai/ha,5%
same,pest or weed control at 31 g/ha,[6]; 31 g ai/ha,5%
same,pest or weed control at 62 g/ha,[6]; 62 g ai/ha,5%
same,pest or weed control at 125 g/ha,[6]; 125 g ai/ha,15%
same,pest or weed control at 250 g/ha,[6]; 250 g ai/ha,10%
same,pest or weed control at 31 g/ha,[7]; 31 g ai/ha,5%
same,pest or weed control at 62 g/ha,[7]; 62 g ai/ha,5%
same,pest or weed control at 125 g/ha,[7]; 125 g ai/ha,5%
same,pest or weed control at 250 g/ha,[7]; 250 g ai/ha,10%
same,pest or weed control at 31 g/ha,[8]; 31 g ai/ha,50%
same,pest or weed control at 62 g/ha,[8]; 62 g ai/ha,50%
same,pest or weed control at 125 g/ha,[8]; 125 g ai/ha,55%
same,pest or weed control at 250 g/ha,[8]; 250 g ai/ha,80%
same,"Corn plant response rating (crop injury, 0 = no effect, 100 = complete kill) at 31 g/ha",corn (Zea mays); 31 g ai/ha,5%
same,"Corn plant response rating (crop injury, 0 = no effect, 100 = complete kill) at 62 g/ha",corn (Zea mays); 62 g ai/ha,10%
same,"Corn plant response rating (crop injury, 0 = no effect, 100 = complete kill) at 125 g/ha",corn (Zea mays); 125 g ai/ha,10%
same,"Corn plant response rating (crop injury, 0 = no effect, 100 = complete kill) at 250 g/ha",corn (Zea mays); 250 g ai/ha,10%
same,pest or weed control at 31 g/ha,[9]; 31 g ai/ha,70%
same,pest or weed control at 62 g/ha,[9]; 62 g ai/ha,90%
same,pest or weed control at 125 g/ha,[9]; 125 g ai/ha,90%
same,pest or weed control at 250 g/ha,[9]; 250 g ai/ha,95%
same,pest or weed control at 31 g/ha,[10]; 31 g ai/ha,5%
same,pest or weed control at 62 g/ha,[10]; 62 g ai/ha,5%
same,pest or weed control at 125 g/ha,[10]; 125 g ai/ha,10%
same,pest or weed control at 250 g/ha,[10]; 250 g ai/ha,20%
same,pest or weed control at 31 g/ha,[11]; 31 g ai/ha,0%
same,pest or weed control at 62 g/ha,[11]; 62 g ai/ha,0%
same,pest or weed control at 125 g/ha,[11]; 125 g ai/ha,5%
same,pest or weed control at 250 g/ha,[11]; 250 g ai/ha,5%
same,pest or weed control at 31 g/ha,[12]; 31 g ai/ha,70%
same,pest or weed control at 62 g/ha,[12]; 62 g ai/ha,75%
same,pest or weed control at 125 g/ha,[12]; 125 g ai/ha,95%
same,pest or weed control at 250 g/ha,[12]; 250 g ai/ha,98%
same,pest or weed control at 31 g/ha,[13]; 31 g ai/ha,5%
same,pest or weed control at 62 g/ha,[13]; 62 g ai/ha,15%
same,pest or weed control at 125 g/ha,[13]; 125 g ai/ha,25%
same,pest or weed control at 250 g/ha,[13]; 250 g ai/ha,20%
same,pest or weed control at 31 g/ha,[14]; 31 g ai/ha,80%
same,pest or weed control at 62 g/ha,[14]; 62 g ai/ha,70%
same,pest or weed control at 125 g/ha,[14]; 125 g ai/ha,85%
same,pest or weed control at 250 g/ha,[14]; 250 g ai/ha,80%
same,plant injury at 31 g/ha,[15]; 31 g ai/ha,40%
same,plant injury at 62 g/ha,[15]; 62 g ai/ha,40%
same,plant injury at 125 g/ha,[15]; 125 g ai/ha,60%
same,plant injury at 250 g/ha,[15]; 250 g ai/ha,35%
same,pest or weed control at 31 g/ha,[16]; 31 g ai/ha,75%
same,pest or weed control at 62 g/ha,[16]; 62 g ai/ha,85%
same,pest or weed control at 125 g/ha,[16]; 125 g ai/ha,90%
same,pest or weed control at 250 g/ha,[16]; 250 g ai/ha,100%
same,pest or weed control at 31 g/ha,[17]; 31 g ai/ha,30%
same,pest or weed control at 62 g/ha,[17]; 62 g ai/ha,35%
same,pest or weed control at 125 g/ha,[17]; 125 g ai/ha,90%
same,pest or weed control at 250 g/ha,[17]; 250 g ai/ha,90%
same,plant injury at 31 g/ha,soybean (Glycine max); 31 g ai/ha,40%
same,plant injury at 62 g/ha,soybean (Glycine max); 62 g ai/ha,75%
same,plant injury at 125 g/ha,soybean (Glycine max); 125 g ai/ha,90%
same,plant injury at 250 g/ha,soybean (Glycine max); 250 g ai/ha,0%
same,pest or weed control at 31 g/ha,[18]; 31 g ai/ha,30%
same,pest or weed control at 62 g/ha,[18]; 62 g ai/ha,65%
same,pest or weed control at 125 g/ha,[18]; 125 g ai/ha,70%
same,pest or weed control at 250 g/ha,[18]; 250 g ai/ha,70%
same,plant injury at 31 g/ha,[19]; 31 g ai/ha,0%
same,plant injury at 62 g/ha,[19]; 62 g ai/ha,0%
same,plant injury at 125 g/ha,[19]; 125 g ai/ha,0%
same,plant injury at 250 g/ha,[19]; 250 g ai/ha,0%
same,pest or weed control at 31 g/ha,[20]; 31 g ai/ha,5%
same,pest or weed control at 62 g/ha,[20]; 62 g ai/ha,5%
same,pest or weed control at 125 g/ha,[20]; 125 g ai/ha,10%
same,pest or weed control at 250 g/ha,[20]; 250 g ai/ha,10%

# Source: patent US20170190671A1, “BIS(ARYL)CATECHOL DERIVATIVES AS HERBICIDES” (E I DU PONT DE NEMOURS AND COMPANY, priority 2014, published 2017)
